Values quoted from earlier work as cited in patent US9290518B2, “Water soluble metal-organic frameworks (MOFs)” (Council of Scientific and Industrial Research, priority 2011, dated 2016).

Conditions: 25° C., 98% RH, literature

O=C1N2CN3C(=O)N4CN5C(=O)N6CN7C(=O)N8CN9C(=O)N%10CN%11C(=O)N%12CN1C1C2N2CN%13C(=O)N(CN%14C(=O)N(CN%15C(=O)N(CN%16C(=O)N(CN%17C(=O)N(CN1C2=O)C%12C%11%17)C%10C9%16)C8C7%15)C6C5%14)C4C3%13 (stereo not shown) [cucurbit [6]uril]
proton conductivity: 1.1×10^−3 S cm^−1
